Here are results for 1 molecule from patent US12023334B2, “Composition including rilpivirine and method for treating tumors or cancer” (APTORUM THERAPEUTICS LIMITED, priority 2019, dated 2024).

Structures are written as SMILES.

For one data set, the system named is SH-SY5Y cell line. As to the kind of experiment: MTT cell proliferation assay, SH-SY5Y. The format is cell-based. The procedure: In the present invention, the IC50 concentrations required to inhibit the activity of IMR-32 cell line and other neuroblastoma cell lines were determined for rilpivirine and other chemotherapeutic agents, and presented on the two-coordinate plot with x- and y-axes, forming the two points (IC50, rilpivirine, 0) and (0, IC50, chemotherapeutic agents). […] Moreover, the concentration or ratios of rilpivirine in combination with chemotherapeutic agents which provide the same inhibition effect are denoted as point (Crilpivirine, 50, Cchemotherapeutic agents, 50) in the same plot.
The combination index provides a quantitative measurement of the drug-drug interaction at the given effect level. The combination index (CI) is calculated by following equation: […]
The IMR-32, SK-N-SH, SH-SY5Y and SK-N-BE(2) tumor cell lines were purchased from American Type Culture Collection (ATCC, Manassas, VA). […] The cells were incubated for 72 hours and then cell proliferation was measured by 3-(4,5-dimethyl-2-thiazolyl)-2,5-diphenyl-2H-tetrazolium bromide (MTT) colorimetric assays (Sigma-Aldrich, Inc., St. Louis, MO). […] Absorbance of each well was measured with a spectrophotometer (uQuant SpectroMAX Gemini Dual-scanning microplate spectro, Bio-tek Instrument Inc.) at 550 nm. Growth inhibition was expressed as the ratio of the mean absorbance of treated cells relative to that of the control.
(In general: Tetrazolium dyes change colour on reduction, which living cells bring about.)

The subject of another data set is CEM-C2. Kind of data set: EC50 in cancer cell line, rilpivirine alone. Particulars: Homo sapiens, Acute lymphoblastic leukemia. The data set is classed as cell-based.
A further data set relates to Thp1. As to the kind of experiment: EC50 in cancer cell line, rilpivirine alone. The format is cell-based. The note with it: Homo sapiens, THP-1, Acute monocytic leukemia.
The next data set relates to BV-173. Kind of data set: EC50 in cancer cell line, rilpivirine alone. Particulars: Homo sapiens, B-cell precursor leukemia (CML). The data set is classed as cell-based.
Another data set deals with T47D. Kind of data set: EC50 in cancer cell line, rilpivirine alone. The data set is classed as cell-based. The note with it: Homo sapiens, Breast.
Another data set has as its system Daudi. Kind of data set: EC50 in cancer cell line, rilpivirine alone. The data set is classed as cell-based. The note with it: Homo sapiens, Burkitt's lymphoma.
For the next data set, the system named is EB2. As to the kind of experiment: EC50 in cancer cell line, rilpivirine alone. The format is cell-based. Particulars: Homo sapiens, Burkitt's lymphoma.
A further data set has as its system EM-2. Kind of data set: EC50 in cancer cell line, rilpivirine alone. Particulars: Homo sapiens, Chronic myelogenous leukemia. The format is cell-based.
The subject of another data set is HuTu80. Kind of data set: EC50 in cancer cell line, rilpivirine alone. Particulars: Homo sapiens, Duodenum. The format is cell-based.
The next data set has as its system Caki-2. Kind of data set: EC50 in cancer cell line, rilpivirine alone. The data set is classed as cell-based. Particulars: Homo sapiens, Kidney.
The next data set deals with SR. As to the kind of experiment: EC50 in cancer cell line, rilpivirine alone. The data set is classed as cell-based. The note with it: Homo sapiens, Large cell immunoblastic lymphoma.
A further data set has as its system HUH-6. Kind of data set: EC50 in cancer cell line, rilpivirine alone. The note with it: Homo sapiens, Liver. The format is cell-based.
The next data set has as its system HMCB. As to the kind of experiment: EC50 in cancer cell line, rilpivirine alone. Particulars: Homo sapiens, Melanoma. The data set is classed as cell-based.
The next data set concerns SK-N-AS. Kind of data set: EC50 in cancer cell line, rilpivirine alone. The note with it: Homo sapiens, Neuroblastoma. The format is cell-based.
A further data set concerns PANC-1. Kind of data set: EC50 in cancer cell line, rilpivirine alone. The format is cell-based. Particulars: Homo sapiens, Pancreas.
The subject of the next data set is DMS273. Kind of data set: EC50 in cancer cell line, rilpivirine alone. The data set is classed as cell-based. The note with it: Homo sapiens, DMS-273, SCLC.
The subject of data set [1] is cleaved poly (ADP-ribose) polymerase (PARP) and phosphor-histone H2A.X (p-H2A.X). Kind of data set: Expression of cleaved PARP and p-H2A.X in SH-SY5Y. Particulars: increasing rilpivirine 0.12, 0.37, 1.11, 3.3, and 10 μM. The data set is classed as cell-based.
A short description of data set [2]: Xenograft mouse model, body weight and signs of overt toxicity. The format is in vivo, female BALB/c nude mice. Particulars: rilpivirine 400 mg/kg once daily for 21 consecutive days, oral. As for the experimental part: This study employed female BALB/c nude mice, aged 4-5 weeks, obtained from BioLasco Taiwan (under Charles River Laboratories Licensee). The animals were housed in individually ventilated cages (IVC, 36 Mini Isolator system). The allocation for 4 animals was 27×20×14 in cm. All the animals were maintained in a hygienic environment under controlled temperature (20-24° C.) and humidity (30%-70%) with 12-hour light/dark cycle. Free access to standard lab diet [MFG (Oriental Yeast Co., Ltd., Japan)] and autoclaved tap water were granted. All aspects of this work including housing, experimentation, and animal disposal were performed in general accordance with the “Guide for the Care and Use of Laboratory Animals: Eighth Edition” (National Academies Press, Washington, D.C., 2011) in our AAALAC-accredited laboratory animal facility. In addition, the animal care and use protocol was reviewed and approved by the IACUC at Pharmacology Discovery Services, Taiwan.
The IMR-32 tumor cell line was purchased from American Type Culture Collection (ATCC CCL-127, neuroblastoma) and cultured in Pharmacology Discovery Services, Taiwan. The cells were cultured in MEM medium containing 10% fetal bovine serum (FBS), 1 mM sodium pyruvate and 1 mM NEAA at 37° C. in 5% CO2 incubator. Female BALB/c nude mice were used as described in the preceding section. Viable IMR-32 cells (ATCC CCL-127) were subcutaneously (SC) implanted (1×10^7 cells in 1:1 matrigel/complete media mixture at 0.2 mL/mouse) into the right flank of female BALB/c nude mice. Forty-one days post tumor cell implantation (group mean tumor volumes ranging 128 mm^3-130 mm^3), all the animals were randomized into sixteen study groups, each containing eight animals, and dose administrations were initiated (denoted as Day 1). All the experiments were conducted using protocols and conditions approved by the institutional animal care and use committee. The tumor volume, body weight, mortality, and signs of overt toxicity were monitored and recorded twice weekly for 28 days.

The term IC50 denotes the concentration needed to halve the response being measured. As usually defined, the EC50 is the concentration at which the effect is half-maximal. For `Cc1cc(/C=C/C#N)cc(C)c1Nc1ccnc(Nc2ccc(C#N)cc2)n1` [rilpivirine], the “growth of neuroblastoma cell line under rilpivirine treatment” value in the data set with SH-SY5Y cell line is given as “successfully inhibited”. In the data set on SH-SY5Y cell line (Homo sapiens, rilpivirine alone, 72 hours), the concentration for half-maximal inhibition (IC50) was determined as 3.12 µM. Moreover, the EC50 worked out at 4.04 µM in the data set on CEM-C2; 4.29 µM with Thp1; 3.69 µM with BV-173; 3.23 µM with T47D; 4.01 µM with Daudi; 4.81 µM in the data set with EB2. The EC50 came to 3.96 µM in the data set on EM-2; 3.59 µM with HuTu80; 4.05 µM in the data set with Caki-2; 3.78 µM with SR; 2410 nM in the data set with HUH-6; 3.49 µM in the data set with HMCB. Also, the EC50 in the data set on SK-N-AS amounted to 4.84 µM; in the data set on PANC-1, 8.27 µM; with DMS273 it was 4.96 µM. Besides, the “expression of cleaved PARP and p-H2A.X” value in data set [1] is listed as “increased gradually”. Besides, the body weight loss result in data set [2] is “not associated with body weight loss”. Also, the overt toxicities entry in data set [2] was “no overt toxicities were observed”. Besides, the tolerability result in data set [2] is “well tolerated”.
